“Also recorded” adds a separate entry of the source. Structures can show the parent of a compound that is named as a salt.
How the values were obtained:
Primary neurons = experiment: Reactive oxygen species (H2O2) induced neuronal death in primary neurons; format: cell-based, mouse; settings: 300 μM H2O2 on DIV10, compounds added 30 min before, FIG. 3
Method: Primary mouse hippocampal neurons were prepared as previously described (Bading & Greenberg, Science, 1991; 253: 912-914; Zhang et al, Neuron, 2007, 53: 549-562) and maintained in Neurobasal-A medium supplemented with 2% B27, 5 mM L-Glutamax, and 0.5% Penicillin/Streptomycin until challenged with NMDA on days in vitro (DIV) 10. Glutamate-induced cell death was analyzed in a real-time manner by monitoring nuclear localized mCherry with IncuCyte® S3 Live-Cell Analysis System (Sartorius AG, Germany). Primary neurons plated in 24 well plates were infected with rAAV-hSyn-mCherry on DIV3 and challenged with 1 μM or 20 μM glutamate on DIV10. All compounds were added to the culture 30 min prior to glutamate/NMDA insult. […] Cell deaths were quantified by analyzing the existence of nuclear localized mCheery via the Basic Analyzer with Incucyte® 2021 software, size and average intensity were used as exclusion criteria.
Primary neurons plated in 24 well plates were infected with rAAV-hSyn-mCherry on DIV3 and challenged with 300 μM H2O2 on DIV10. […] Cell deaths were quantified by analyzing the existence of nuclear localized mCherry via the Basic Analyzer with Incucyte® 2021 software, size and average intensity were used as exclusion criteria.

[1] = test system: Primary mouse hippocampal neurons; experiment: Excitotoxic (glutamate/NMDA-induced) cell death in primary neuronal cultures, protection index; format: cell-based; settings: for IC50: Mus musculus, Hippocampal neuron, excitotoxic cell death in primary neuronal cultures
Method: Primary mouse hippocampal neurons were prepared as previously described (Bading & Greenberg, Science, 1991; 253: 912-914; Zhang et al, Neuron, 2007, 53: 549-562) and maintained in Neurobasal-A medium supplemented with 2% B27, 5 mM L-Glutamax, and 0.5% Penicillin/Streptomycin until challenged with NMDA on days in vitro (DIV) 10. Glutamate-induced cell death was analyzed in a real-time manner by monitoring nuclear localized mCherry with IncuCyte® S3 Live-Cell Analysis System (Sartorius AG, Germany). Primary neurons plated in 24 well plates were infected with rAAV-hSyn-mCherry on DIV3 and challenged with 1 μM or 20 μM glutamate on DIV10. All compounds were added to the culture 30 min prior to glutamate/NMDA insult. Images were acquired following the glutamate application for 24 h with a 2 h interval, where 9-16 images were obtained via a 20×objective for each condition at each time point. Cell deaths were quantified by analyzing the existence of nuclear localized mCheery via the Basic Analyzer with Incucyte® 2021 software, size and average intensity were used as exclusion criteria.
In order to evaluate the protective effects of various compounds, a quantification method was developed to determine each compound's protection index. The protection index (from 0.0 to 10.0) was calculated by the area above the curve (AAC) during a 24 h excitotoxic stimuli, where the cell survival was normalized to the 0 h (FIG. 2), following the equation: […]
Where AAC represents for each compound, AACbasal represents for the basal condition without excitotoxic insult, AACVeh represents for the vehicle control with excitotoxic insult. Based on the equation, vehicle (DMSO) has a protection index at 0.0 and compound P401 of WO 2020/079244 has a protection index at 6.0 (at 10 μM).
The inventors also performed experiments with Group A compounds at lower concentration in a 3-fold dilution matter ([…]: 3.0, 1.0, 0.3, 0.1, 0.03) and were able to achieve a similar protection effect as 10 μM compound P401, but at a lower concentration.

[2] = first subset, protection index from area above curve over 24 h glutamate/NMDA insult, compounds added 30 min before, 10 μM, Group A also at lower concentrations
[3] = second subset, protection index from area above curve over 24 h glutamate/NMDA insult, compounds added 30 min before, 10 μM, Group A also at lower concentrations
[4] = third subset, A++++ or above correlates with IC50, A++ and A+++ as defined in the source

CCN(CCN)Cc1cccc(Cl)c1 [Compound P401, (2-aminoethyl)[(3-chlorophenyl)methyl]ethylamine, reference compound]
protection against H2O2 insult (cell survival) (Primary neurons): better protection against H2O2 insult compared to FDA-approved ALS drug Riluzole and Edaravone; also recorded: better protection against H2O2 insult than the FDA-approved ALS drug Riluzole and Edaravone
protection (cell survival after glutamate/NMDA treatment) ([1]; 10 μM, primary cultured neurons, FIG. 2): ~60%
protection index ([1]; at 10 μM, scale 0.0 to 10.0, vehicle (DMSO) = 0.0): 6.0

CC(c1cccc(Cl)c1F)N(CCN)C1CC1 (centres unmarked) [Compound 220, N1-(1-(3-chloro-2-fluorophenyl)ethyl)-N1-cyclopropylethane-1,2-diamine hydrochloride]
protection against H2O2 insult (cell survival) (Primary neurons; hydrochloride): better protection against H2O2 insult compared to P401 at 10 μM; also recorded: even better protection than the prior art compound P401
Biological Activity Rating ([1]; second subset, protection index from area above curve over 24 h glutamate/NMDA insult, compounds added 30 min before, 10 μM, Group A also at lower concentrations, hydrochloride): A++++ (With a protection index between 5.0 to 7.0, provides a comparable protection to compound P401 (10 μM) at 0.1 μM.)

CC(C)C(c1cccc(Br)c1F)N(CCN)C1CC1 (centres unmarked) [Compound 294, N′-[1-(3-bromo-2-fluoro-phenyl)-2-methyl-propyl]-N′-cyclopropyl-ethane-1,2-diamine TFA salt]
IC50 ([1]; third subset): 10 nM

C=CCC(=O)N(CCN)Cc1cccc(Cl)c1 [Compound 137, N-(2-aminoethyl)-N-[(3-chlorophenyl)methyl]but-3-enamide hydrochloride]
Biological Activity Rating [1, 2]: A (With a protection index over 7.0, provides a significantly better protection over compound P401 (10 μM) at 10 μM.)

CCN(CCN)Cc1cc(F)cc(Cl)c1 [Compound 94]
Biological Activity Rating [1, 2]: B (With a protection index between 5.0 to 7.0, provides a comparable protection to compound P401 (10 μM) at 10 μM.)

CCN(CCN)Cc1cccc(C#N)c1F [Compound 175, 3-(((2-aminoethyl)(ethyl)amino)methyl)-2-fluorobenzonitrile TFA salt]
Biological Activity Rating [1, 2]: A+ (With a protection index between 5.0 to 7.0, provides a comparable protection to compound P401 (10 μM) at 3.0 μM.)

CC(c1cc(Cl)cs1)N(CCN)C1CC1 (centres unmarked) [Compound 279, N′-[1-(4-chloro-2-thienyl)ethyl]-N′-cyclopropyl-ethane-1,2-diamine hydrochloride]
IC50 ([1]; third subset): 230 nM

CC(c1cc(Cl)ccc1Cl)N(CCN)C1CC1 (centres unmarked) [Compound 185, N1-(cyclopropyl)-N1-(1-(2,5-dichlorophenyl)ethyl)ethane-1,2-diamine hydrochloride]
Biological Activity Rating [1, 3]: A++ (With a protection index between 5.0 to 7.0, provides a comparable protection to compound P401 (10 μM) at 1.0 μM.)

C=CCN(CCN)C(C)c1cccc(Cl)c1F (centres unmarked) [Compound 172, N1-allyl-N1-(1-(3-chloro-2-fluorophenyl)ethyl)ethane-1,2-diamine hydrochloride]
Biological Activity Rating [1, 3]: A++ (With a protection index between 5.0 to 7.0, provides a comparable protection to compound P401 (10 μM) at 1.0 μM.)

CC(c1cccc(Cl)c1F)N(CCN)C1CC1 (single isomer, unassigned; (+)) [Compound 220A, (+)-N1-(1-(3-chloro-2-fluorophenyl)ethyl)-N1-cyclopropylethane-1,2-diamine]
Biological Activity Rating [1, 3]: A++ (With a protection index between 5.0 to 7.0, provides a comparable protection to compound P401 (10 μM) at 1.0 μM.)

NCCN(C1CC1)C(c1cccc(Br)c1F)C(F)(F)F (centres unmarked) [Compound 261A, N′-[1-(3-bromo-2-fluoro-phenyl)-2,2,2-trifluoro-ethyl]-N′-cyclopropyl-ethane-1,2-diamine hydrochloride]
IC50 ([1]; third subset): 33 nM

CC(C)C(c1cccc(Cl)c1F)N(CCN)CC(F)F (centres unmarked) [Compound 282, N′-[1-(3-chloro-2-fluoro-phenyl)-2-methyl-propyl]-N′-(2,2-difluoroethyl)ethane-1,2-diamine TFA salt]
IC50 ([1]; third subset): 51 nM

NCCN(Cc1cccc(Cl)c1F)CC(F)(F)F [Compound 119, N1-(3-chloro-2-fluorobenzyl)-N1-(2,2,2-trifluoroethyl)ethane-1,2-diamine]
Biological Activity Rating [1, 2]: A (With a protection index over 7.0, provides a significantly better protection over compound P401 (10 μM) at 10 μM.)

CC(c1scc(C#N)c1F)N(CCN)C1CC1 (centres unmarked) [Compound 297, 5-[1-[2-aminoethyl(cyclopropyl)amino]ethyl]-4-fluoro-thiophene-3-carbonitrile TFA salt]
IC50 ([1]; third subset): 974 nM
Biological Activity Rating [1, 4]: A+++

NCCN(Cc1cccc(Cl)c1)C1CCCCC1 [Compound 124]
Biological Activity Rating [1, 2]: B (With a protection index between 5.0 to 7.0, provides a comparable protection to compound P401 (10 μM) at 10 μM.)

CC(C)(F)C(c1cccc(C#N)c1F)N(CCN)C1CC1 (centres unmarked) [Compound 287, 3-[1-[2-aminoethyl(cyclopropyl)amino]-2-fluoro-2-methyl-propyl]-2-fluoro-benzonitrile TFA salt]
IC50 ([1]; third subset): 3 nM

CC(c1cccc(F)c1Cl)N(CCN)C1CC1 (centres unmarked) [Compound 246]
IC50 ([1]; third subset): 500 nM
Biological Activity Rating [1, 4]: A+++

CCN(CCN)[C@H](C)c1cccc(Cl)c1 [Compound 176, (R)—N1-(1-(3-chlorophenyl)ethyl)-N1-ethylethane-1,2-diamine dihydrochloride]
Biological Activity Rating [1, 3]: A (With a protection index over 7.0, provides a significantly better protection over compound P401 (10 μM) at 10 μM.)

NCCN(C1CC1)C(c1cccc(Cl)c1F)C1CCC1 (centres unmarked) [Compound 267, N^1-((3-chloro-2-fluorophenyl)(cyclobutyl)methyl)-N^1-cyclopropylethane-1,2-diamine hydrochloride]
IC50 ([1]; third subset): 130 nM

CSCCN(CCN)C(C)c1cccc(Cl)c1F (centres unmarked) [Compound 169, N1-(2-(methylthio)ethyl)-N1-(1-(3-chloro-2-fluorophenyl)ethyl) ethane-1,2-diamine]
Biological Activity Rating [1, 3]: B (With a protection index between 5.0 to 7.0, provides a comparable protection to compound P401 (10 μM) at 10 μM.)

NCCN(C1CC1)C(c1cccc(Cl)c1F)C(F)(F)C(F)(F)F (centres unmarked) [Compound 270, N1-(1-(3-chloro-2-fluorophenyl)-2,2,3,3,3-pentafluoropropyl)-N1-cyclopropylethane-1,2-diamine TFA salt]
IC50 ([1]; third subset): 13 nM

NCCN(C1CC1)C(c1cccc(Cl)c1F)C1CC1 (centres unmarked) [Compound 190]
IC50 ([1]; third subset): 110 nM

NCCN(C1CC1)C(c1cccc(Cl)c1F)C(F)F (centres unmarked) [Compound 275, N1-(1-(3-chloro-2-fluorophenyl)-2,2-difluoroethyl)-N1-cyclopropylethane-1,2-diamine hydrochloride]
IC50 ([1]; third subset): 468 nM
Biological Activity Rating [1, 4]: A+++

CCN(CCN)Cc1cccc(Cl)c1F [Compound 91]
Biological Activity Rating [1, 2]: A (With a protection index over 7.0, provides a significantly better protection over compound P401 (10 μM) at 10 μM.)

CCN(CCN)Cc1cccc(Br)c1F [Compound 175A]
Biological Activity Rating [1, 2]: A (With a protection index over 7.0, provides a significantly better protection over compound P401 (10 μM) at 10 μM.)

CCN(CCN)[C@@H](C)c1cccc(Cl)c1 [Compound 177, (S)—N1-(1-(3-chlorophenyl)ethyl)-N1-ethylethane-1,2-diamine dihydrochloride]
Biological Activity Rating [1, 3]: A (With a protection index over 7.0, provides a significantly better protection over compound P401 (10 μM) at 10 μM.)

— patent publication US20250339402A1, “EFFECTIVE MEANS TO MODULATE NMDA RECEPTOR-MEDIATED TOXICITY” (FUNDAMENTAL PHARMA GMBH, priority 2022, published 2025)
